Where two headings read alike, the source gives them in different places.
Key:
[1] = tested on: Candida albicans ATCC 10231; experiment: Antifungal activity in vitro, serial dilution in RPMI 1640; assay type: cell-based; conditions: Table 2A, RPMI 1640, pH 7.0; for Antifungal activity Candida albicans ATCC 10231 IC50: A531 50% of control; for Antifungal activity Candida albicans ATCC 10231 MIC: A531 at most 20% of control
Procedure: (§1) For the determination of antifungal activity in vitro we used method of serial dilution in buffered medium RPMI 1640, pH 7.0, in a 96-wells microplates, according to the standard procedure (National Committee for Clinical Laboratory Standards. Reference method for broth dilution antifungal susceptibility testing of yeast, approved standard, 2nd ed. M27-A2 vol. 22 Wayne, Pa., 2002). The optical density of cells suspension was measured using a microplates reader (Victor^3, Perkin-Elmer) at the wavelength λ=531 nm (A531). On the basis of obtained results the diagrams of relation between A531 values and concentration of examined compound were made. From these graphs, the IC50 values were read, which were the interpolated concentrations of a tested compound, at which the A531 value was exactly 50% of the A531 value for the control sample. Moreover, MIC values, that are the lowest concentration of tested compound at which the A531 value were at most 20% of the A531 value measured for the control sample.

[2] = tested on: Candida krusei DSM 6128; experiment: as above; assay type: cell-based; conditions: Table 2A; RPMI 1640, pH 7.0
Procedure: as §1

[3] = tested on: Candida glabrata DSM 11226; experiment: as above; assay type: cell-based; conditions: Table 2A; RPMI 1640, pH 7.0
Procedure: as §1

[4] = tested on: Saccharomyces cerevisiae ATCC 9763; experiment: as above; assay type: cell-based; conditions: Table 2A; RPMI 1640, pH 7.0; A531 at most 20% of control
Procedure: as §1

[5] = tested on: Candida tropicalis KKP 334; experiment: as above; assay type: cell-based; conditions: Table 2A; RPMI 1640, pH 7.0
Procedure: as §1

[6] = tested on: Human erythrocytes; experiment: Hemotoxicity (hemolytic activity)
Procedure: The hemotoxicity determination were carried out by the serial dilutions method, according to the procedure described earlier (Ślisz, M., et al., E., J Antibiot 57: 669-678 (2004)). Human erythrocytes were suspensed in the solution of saline to obtain a cell density of suspension 2×10^7/ml. Suitable amounts of diluted solutions of compounds were added to the cell suspension in tubes and were incubated at 37° C. for 30 minutes and then centrifuged (1700×g, 10 min, 4° C.). The concentration of hemoglobin in supernatant after centrifugation of erythrocytes suspension were determined by measuring the absorbance at wavelength λ=540 nm (A540). The maximum level of hemolysis was obtained after incubation of cells suspension in the presence of 0.1% Tritone X-100 (control sample). […] From these graphs, the EH50 values were read which are the interpolated concentrations of compound, for which the A540 value is exactly 50% of the A540 value measured for the control sample.

[7] = human erythrocytes, concentration causing 10% of hemolysis

Compound | Antifungal activity Candida albicans ATCC 10231 IC50 [1] [mg/L] | Antifungal activity Candida albicans ATCC 10231 MIC [1] [mg/L] | Antifungal activity Candida krusei DSM 6128 MIC [2] [mg/L] | Antifungal activity Candida glabrata DSM 11226 MIC [3] [mg/L] | Antifungal activity Saccharomyces cerevisiae ATCC 9763 MIC [4] [mg/L] | Antifungal activity Candida tropicalis KKP 334 MIC [5] [mg/L] | % of hemolysis at the concentration 300 μg ml^−1 [6] [%] | EH10 [6] [µg/mL] | Hemotoxicity BEH50 ([6]; human erythrocytes, 37° C., 30 minutes, concentration causing 50% hemolysis, maximum concentration 300 μg/ml) [µg/mL] | % of hemolysis at the concentration 300 μg ml^−1 ([6]; human erythrocytes, 300 μg ml^−1) [%] | EH10 [6, 7] [µg/mL]
CC1OC(O[C@H]2/C=C/C=C/C=C/C=C/CC/C=C/C=C/[C@H](C)[C@@H](O)[C@@H](C)[C@H](C)OC(=O)C[C@H](O)C[C@H](O)C[C@H](O)CC[C@@H](O)[C@H](O)CC3(O)C[C@H](O)[C@@H](C(=O)O)[C@H](C2)O3)C(O)C(NC2CC(=O)N(Cc3ccccc3)C2=O)C1O (stereo partly shown) [Compound N1, N—(N′-benzylsuccinimidyl)nystatin A1] | 5.36 | 8 | 32 | 16 | 8 | 8 | – | – | – | – | –
CC1OC(O[C@H]2/C=C/C=C/C=C/C=C/CC/C=C/C=C/[C@H](C)[C@@H](O)[C@@H](C)[C@H](C)OC(=O)C[C@H](O)C[C@H](O)C[C@H](O)CC[C@@H](O)[C@H](O)CC3(O)C[C@H](O)[C@@H](C(=O)O)[C@H](C2)O3)C(O)C(NC2CC(=O)N(c3ccc(Br)cc3)C2=O)C1O (stereo partly shown) [Compound N2, N—(N′-4-bromophenylsuccinimidyl)nystatin A1] | 4.99 | 8 | 16 | 16 | 8 | 8 | – | – | – | – | –
Cc1cc(C)c(N2C(=O)CC(N[C@@H]3[C@H](O)[C@H](O[C@H]4/C=C/C=C/C=C/C=C/CC/C=C/C=C/[C@H](C)[C@@H](O)[C@@H](C)[C@H](C)OC(=O)C[C@H](O)C[C@H](O)CC[C@@H](O)[C@H](O)C[C@H](O)C[C@]5(O)C[C@H](O)[C@@H](C(=O)O)[C@H](C4)O5)O[C@H](C)[C@H]3O)C2=O)c(C)c1 (stereo partly shown) [Compound N3, N—(N′-2,4,6-trimethylphenylsuccinimidyl)nystatin A1] | 11.76 | 16 | – | 32 | 8 | 16 | – | – | – | – | –
Cc1cccc(C)c1N1C(=O)CC(NC2C(O)C(C)OC(O[C@H]3/C=C/C=C/C=C/C=C/CC/C=C/C=C/[C@H](C)[C@@H](O)[C@@H](C)[C@H](C)OC(=O)C[C@H](O)C[C@H](O)C[C@H](O)CC[C@@H](O)[C@H](O)CC4(O)C[C@H](O)[C@@H](C(=O)O)[C@H](C3)O4)C2O)C1=O (stereo partly shown) [Compound N4, N—(N′-2,6-dimethyl-phenylsuccinimidyl)nystatin A1] | 6.32 | 8 | 16 | 16 | 8 | 8 | – | – | – | – | –
CCCN(CC1(O)OCC(O)C(O)C1O)C1C(O)C(C)OC(OC2C=CC=CC=CC=CCCC=CC=CC(C)C(O)C(C)C(C)OC(=O)CC(O)CC(O)CC(O)CCC(O)C(O)CC3(O)CC(O)C(C(=O)O)C(C2)O3)C1O (stereo not shown) [Compound N27, N-fructosyl-N-n-propylnystatin A1] | – | – | – | – | – | – | 7.34 | >300 | – | – | –
CC1OC(O[C@H]2/C=C/C=C/C=C/C=C/CC/C=C/C=C/[C@H](C)[C@@H](O)[C@@H](C)[C@H](C)OC(=O)C[C@H](O)C[C@H](O)C[C@H](O)CC[C@@H](O)[C@H](O)CC3(O)C[C@H](O)[C@@H](C(=O)O)[C@H](C2)O3)C(O)C(NC(=O)[C@@H](N)CCC(=O)OC(C)(C)C)C1O (stereo partly drawn) [Compound N35, N-L-(O-tert-butyl)glutamylnystatin A1] | 6.36 | 8 | 16 | 16 | 8 | 16 | – | – | – | – | –
CC1C=CC=CCCC=CC=CC=CC=CC(OC2OC(C)C(O)C(NC(=O)C(N)COC(C)(C)C)C2O)CC2OC(O)(CC(O)CC(O)C(O)CCC(O)CC(O)CC(=O)OC(C)C(C)C1O)CC(O)C2C(=O)O [Compound N36, N-L-(O-tert-butyl)serylnystatin A1] | – | – | – | – | – | – | 8.24 | >300 | – | – | –
C[C@@H]1[C@H](O)[C@@H](C)/C=C/C=C/CC/C=C/C=C/C=C/C=C/[C@H](O[C@@H]2O[C@H](C)[C@@H](O)[C@H](NC(=O)[C@H](N)COC(C)(C)C)[C@@H]2O)C[C@@H]2O[C@](O)(C[C@@H](O)C[C@@H](O)[C@H](O)CC[C@@H](O)C[C@@H](O)CC(=O)O[C@H]1C)C[C@H](O)[C@H]2C(=O)O [Compound N38, N-D-(O-tert-butyl)serylnystatin A1] | 5.95 | 8 | 16 | 16 | 8 | 8 | – | – | – | – | –
C[C@@H]1[C@H](O)[C@@H](C)/C=C/C=C/CC/C=C/C=C/C=C/C=C/[C@H](O[C@@H]2O[C@H](C)[C@@H](O)[C@H](NC(=O)[C@@H](N)Cc3ccc([N+](=O)[O-])cc3)[C@@H]2O)C[C@@H]2O[C@](O)(C[C@@H](O)C[C@@H](O)[C@H](O)CC[C@@H](O)C[C@@H](O)CC(=O)O[C@H]1C)C[C@H](O)[C@H]2C(=O)O [Compound N40, N-L-(4-nitrophenyl)alanylnystatin A1] | 5.56 | 8 | 16 | 16 | 8 | 8 | – | – | >300 | 7.45 | >300
CC1OC(O[C@H]2/C=C/C=C/C=C/C=C/CC/C=C/C=C/[C@H](C)[C@@H](O)[C@@H](C)[C@H](C)OC(=O)C[C@H](O)C[C@H](O)C[C@H](O)CC[C@@H](O)[C@H](O)CC3(O)C[C@H](O)[C@@H](C(=O)O)[C@H](C2)O3)C(O)C(NC(=O)[C@H](N)Cc2cccnc2)C1O (stereo partly drawn) [Compound N42, N-D-β-(pyridin-3-yl)alanylnystatin A1] | 10.54 | 16 | 32 | 32 | 8 | 16 | – | – | – | – | –
CNC(C)(C)C(=O)NC1C(O)C(C)OC(O[C@H]2/C=C/C=C/C=C/C=C/CC/C=C/C=C/[C@H](C)[C@@H](O)[C@@H](C)[C@H](C)OC(=O)C[C@H](O)C[C@H](O)C[C@H](O)CC[C@@H](O)[C@H](O)CC3(O)C[C@H](O)[C@@H](C(=O)O)[C@H](C2)O3)C1O (stereo partly shown) [Compound N43, N-[2-(N-methylamino)-2-methylpropan]nystatin A1] | 5.46 | 8 | 16 | 8 | 8 | 8 | – | – | – | – | 283.84
N—(N′-cyclohexylsuccinimidyl)nystatin A1 [Compound N5] | 5.77 | 8 | 16 | 16 | 8 | 8 | – | – | – | – | –
